Data as given in patent US10718006B2, “Methods for detecting beta-lactamase-producing bacteria” (priority 2015, dated 2020).
Values belong to the compound of their own block, whether it stands above or below them.

Key:
[1] = Cyclic voltammetry of nitrocefin and its form hydrolyzed by ESBL; assay type: physicochemical; conditions: screen-printed carbon electrodes; for peak of irreversible anodic oxidation (a1): PBS pH 7.0
Description: Each sensor consists of the working electrode and a counter-electrode. The working area of the sensor (7.07 mm^2) is delimited with an adhesive ring, which also allows the electrochemical cell to be defined. For carrying out amperometric measurement, the sensor is inserted in a connector (Dropsens) connected to the potentiostat, and then a 20-μL drop of the solution to be analyzed is deposited on the surface of the sensor. After immersing a silver wire coated with a silver chloride precipitate (Ag/AgCl), which constitutes the reference electrode, the measurements are carried out by cyclic voltammetry (v=50 mV·s^−1) at ambient temperature.
5 μL of ESBL solution is put in a polypropylene tube containing 45 μL of 0.5 mM nitrocefin solution in phosphate buffer (PBS; 100 mM; pH=7.0). After a step of incubation for 10 minutes at ambient temperature in the dark, 20 μL of the mixture is taken and transferred onto the surface of the screen-printed carbon sensor. A reference electrode (Ag/AgCl) is then immersed in the 20 μL of solution previously deposited, and the cyclic voltammetry measurements are carried out by proceeding as follows: potential scanning between −0.4 V and 1.2 V at a rate of 50 mV·s^−1.
The oxidation peak appearing at about +0.3 V results from hydrolysis of the beta-lactam ring of nitrocefin and may be selected as the analytical response for identifying beta-lactamases in a sample.
Nitrocefin was hydrolyzed by an extended-spectrum beta-lactamase in an abundant quantity. The voltammetric behaviour of nitrocefin (S) and of its hydrolyzed form (P) was investigated by cyclic voltammetry using screen-printed electrodes based on carbon. Nitrocefin and hydrolyzed nitrocefin both have a peak of irreversible anodic oxidation (a1) at about +1.0 V vs. Ag/AgCl. This peak may be attributed to oxidation of the thiol group in the dihydrothiazine group or to other functions specific to the cephalosporin derivatives. […]

[2] = tested on: E. coli strains ESBL+ (MIAE6690) and ESBL− (K12); assay: Voltammetric detection of ESBL-producing E. coli with nitrocefin; assay type: cell-based; conditions: pellet incubated 10 min with 500 μM nitrocefin
Procedure: Then 1 mL of each bacterial suspension is transferred to a polypropylene tube and centrifuged at 7000 g for 10 min. After removing the supernatant, a volume of 50 μL of nitrocefin solution (0.5 mM in PBS) is put in the tube and incubated with the bacterial pellet for 10 min at ambient temperature in the dark. The liquid is then aspirated and transferred onto the screen-printed sensor to carry out the voltammetric measurement as stated in section 1.3.
To evaluate the capacity of the voltammetric method for detecting the ESBL-producing bacteria, two strains of E. coli with a well-characterized genotype were selected, one being a producer of an ESBL (ESBL^+) and the other not producing ESBL (ESBL^−). First the two strains are cultured in LB medium containing 4 μg·mL^−1 of cefotaxime. After the centrifugation step, the respective bacterial pellets of these two strains are incubated with nitrocefin as substrate. […] The culture medium supplemented with cefotaxime and the medium without antibiotic were also subjected to voltammetric measurement. No specific signal is observed in the potential range [0.1-0.6 V vs. Ag/AgCl] for these two media, which confirms that neither the LB culture medium, nor cefotaxime interferes with voltammetric detection.

ESBL+ E. coli strain = assay: ESBL+ E. coli cultured with cefotaxime with or without clavulanate potassium; assay type: cell-based
Procedure: FIG. 4: Cyclic voltammograms (v=50 mV·s^−1) recorded with a screen-printed sensor for the E. coli strain ESBL^+ cultured in a culture medium containing only 4 μg·mL^−1 of cefotaxime (A) or supplemented with 10 μg·mL^−1 of clavulanate potassium, then centrifuged (1 mL; 7000 g; 10 min) before a step of incubation of the pellet with 50 μL in a 500-μM solution of nitrocefin in PBS for 10 min.
Since the hyperproduced cephalosporinases and the carbapenemases can also hydrolyse cefotaxime, the bacteria producing these enzymes can also give a positive response in the presence of cefotaxime. In order to distinguish the bacteria producing extended-spectrum beta-lactamases and the bacteria producing hyperproduced cephalosporinases and carbapenemases, the bacteria were cultured simultaneously in two culture media, one containing cefotaxime as antibiotic, the other additionally containing clavulanate potassium as inhibitor of ESBLs. After recovering the bacteria, the bacterial pellets were incubated with nitrocefin as substrate.

[3] = tested on: E. coli strains ESBL+ (MIAE6690) and ESBL− (K12); assay: Optical density of E. coli strains cultured with cefotaxime; assay type: cell-based

peak of irreversible anodic oxidation (a1) [1]: about +1.0 V vs. Ag/AgCl
Structure (SMILES): O=C(Cc1cccs1)N[C@@H]1C(=O)N2C(C(=O)O)=C(/C=C/c3ccc([N+](=O)[O-])cc3[N+](=O)[O-])CS[C@H]12 [nitrocefin]
anodic peak associated with hydrolysis of the β-lactam ring of nitrocefin ([2]; ESBL+ E. coli strain): about +0.4 V vs. Ag/AgCl
anodic peak associated with hydrolysis of the β-lactam ring of nitrocefin ([2]; ESBL− E. coli strain): no peak is recorded

Structure (SMILES): O=C(O)[C@H]1/C(=C/CO)O[C@@H]2CC(=O)N21 [clavulanate potassium]
anodic peak resulting from hydrolysis of nitrocefin (ESBL+ E. coli strain; ESBL+ strain cultured with 4 μg·mL^−1 cefotaxime and 10 μg·mL^−1 clavulanate potassium): no signal was recorded
E. coli count on selective medium (ESBL+ E. coli strain; culture with cefotaxime supplemented with an inhibitor (clavulanate potassium)): 80 CFU·mL^−1

peak of irreversible anodic oxidation (a1) [1]: about +1.0 V vs. Ag/AgCl
peak of irreversible anodic oxidation (a2) ([1]; PBS pH 7.0, nitrocefin hydrolyzed by ESBL): about +0.3 V
Structure (SMILES): O=C(Cc1cccs1)NC(C(=O)O)C1NC(C(=O)O)=C(C=Cc2ccc([N+](=O)[O-])cc2[N+](=O)[O-])CS1 (stereo not shown) [hydrolyzed nitrocefin]

Structure (SMILES): CO/N=C(\C(=O)N[C@@H]1C(=O)N2C(C(=O)O)=C(COC(C)=O)CS[C@H]12)c1csc(N)n1 [cefotaxime]
optical density ([3]; ESBL+ E. coli strain cultured in LB with 4 μg·mL^−1 cefotaxime): 0.934
optical density ([3]; ESBL− E. coli strain cultured in LB with 4 μg·mL^−1 cefotaxime): 0.002
E. coli count on selective medium (ESBL+ E. coli strain; culture with cefotaxime without inhibitor): 1.8×10^8 CFU·mL^−1
